Data taken from US10898481B2 (priority 2018, dated 2021).
pIC50: −log10 of the molar value.

Columns and labels:
hA1 = hA1 (Homo sapiens (Human), UniProt P30542); conditions: hA1 membrane, [3H]-DPCPX; read-out: Binding Affinity (IC50 nM) hA1
From the text: (§1) The empty boxes in the tables below indicate data not collected yet.

[1] = biological target: hADORA1/CHO (hA1 expressing) cells (Homo sapiens (Human), UniProt P30542); experiment: cell-based; conditions: FLIPR inhibition, 10 μM adenosine, read-out: cAMP & FLIPR IC50 (nM) hA1
hA2a/CHO = hA2a/CHO (Homo sapiens (Human), UniProt P29274); experiment: cAMP inhibition assay in hA2a/CHO cells, 10 μM adenosine; format: cell-based; conditions: read-out: cAMP & FLIPR IC50 (nM) hA2a;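 also: compounds added to cells 30 min ahead of adenosine, then a further 30 min at 37 °C with adenosine before cAMP detection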
hA3/CHO = hA3/CHO (Homo sapiens (Human), UniProt P0DMS8); experiment: cell-based
Protocol: hA2a/CHO, hA2b/CHO, hA3/CHO and mA2a/CHO (Genscript) were plated at 5×10^3 cells/well into 384-well polystyrene plates at the day of experiment. Compounds were pre-incubated with cells for 30 min at 37° C., 5% CO2. Then 10 μM adenosine was added to the cells and incubated for 30 min at 37° C., 5% CO2. Detection reagent (CISBIO) was added and the plates were incubated for 60 min at room temperature. The signal was captured by Envision.

mA2a/CHO = mA2a/CHO (Mus musculus (Mouse), UniProt Q60613); experiment: cAMP inhibition assay in mA2a/CHO cells, 10 μM adenosine; format: cell-based; conditions: read-out: cAMP & FLIPR IC50 (nM) mA2a;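 also: compounds preincubated 30 min at 37 °C before the adenosine challenge, then 30 min further stimulation, readout after 60 min detection reagent incubation at room temperature in 384-well plates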
hA2b/CHO = hA2b/CHO (Homo sapiens (Human), UniProt P29275); experiment: cAMP inhibition assay in hA2b/CHO cells, 10 μM adenosine; format: cell-based; conditions: read-out: cAMP & FLIPR IC50 (nM) hA2b;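 also: cells exposed to compound 30 min at 37 °C, then stimulated with adenosine a further 30 min, cAMP read after 60 min at room temperature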
hA2a = hA2a (Homo sapiens (Human), UniProt P29274); experiment: Radioligand binding to hA2a membrane with [3H]-CGS21680; conditions: read-out: Binding Affinity (IC50 nM) hA2a
From the text: as §1

hA2b = hA2b (Homo sapiens (Human), UniProt P29275); experiment: Radioligand binding to hA2b membrane with [3H]-DPCPX; conditions: read-out: Binding Affinity (IC50 nM) hA2b
From the text: as §1

hA2a/CHO, sequence (P29274 whole entry): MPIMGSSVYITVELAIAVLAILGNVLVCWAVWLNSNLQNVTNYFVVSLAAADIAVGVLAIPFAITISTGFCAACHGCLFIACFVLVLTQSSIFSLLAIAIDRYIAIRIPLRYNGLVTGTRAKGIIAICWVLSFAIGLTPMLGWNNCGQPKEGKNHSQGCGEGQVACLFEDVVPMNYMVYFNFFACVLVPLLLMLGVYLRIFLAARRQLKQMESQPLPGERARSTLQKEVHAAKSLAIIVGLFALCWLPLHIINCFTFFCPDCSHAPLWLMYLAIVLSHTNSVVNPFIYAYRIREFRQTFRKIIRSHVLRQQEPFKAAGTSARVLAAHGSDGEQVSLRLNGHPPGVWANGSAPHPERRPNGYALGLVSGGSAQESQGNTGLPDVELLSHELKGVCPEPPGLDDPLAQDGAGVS
hA2a, sequence (P29274 whole entry): as above
hA2b/CHO, sequence (P29275 whole entry): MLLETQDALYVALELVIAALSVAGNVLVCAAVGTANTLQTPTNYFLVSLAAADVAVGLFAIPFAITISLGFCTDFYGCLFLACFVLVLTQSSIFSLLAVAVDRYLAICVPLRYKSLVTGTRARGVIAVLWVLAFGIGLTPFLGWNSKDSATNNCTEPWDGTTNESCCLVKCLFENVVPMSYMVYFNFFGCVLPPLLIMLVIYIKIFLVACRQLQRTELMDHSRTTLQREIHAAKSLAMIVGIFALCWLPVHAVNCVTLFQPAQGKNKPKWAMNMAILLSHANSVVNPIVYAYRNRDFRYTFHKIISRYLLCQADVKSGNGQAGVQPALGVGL
hA2b, sequence (P29275 whole entry): as above
hADORA1/CHO (hA1 expressing) cells, sequence (P30542 whole entry): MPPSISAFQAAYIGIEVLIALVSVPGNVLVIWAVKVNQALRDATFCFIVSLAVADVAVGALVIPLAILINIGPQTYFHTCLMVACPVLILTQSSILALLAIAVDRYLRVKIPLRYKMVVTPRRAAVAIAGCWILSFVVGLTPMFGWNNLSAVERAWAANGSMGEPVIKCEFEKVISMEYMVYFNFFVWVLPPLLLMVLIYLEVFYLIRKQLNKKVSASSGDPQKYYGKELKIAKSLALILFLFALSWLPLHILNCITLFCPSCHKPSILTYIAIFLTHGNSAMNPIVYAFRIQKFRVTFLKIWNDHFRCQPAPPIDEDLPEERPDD
mA2a/CHO, sequence (Q60613 whole entry): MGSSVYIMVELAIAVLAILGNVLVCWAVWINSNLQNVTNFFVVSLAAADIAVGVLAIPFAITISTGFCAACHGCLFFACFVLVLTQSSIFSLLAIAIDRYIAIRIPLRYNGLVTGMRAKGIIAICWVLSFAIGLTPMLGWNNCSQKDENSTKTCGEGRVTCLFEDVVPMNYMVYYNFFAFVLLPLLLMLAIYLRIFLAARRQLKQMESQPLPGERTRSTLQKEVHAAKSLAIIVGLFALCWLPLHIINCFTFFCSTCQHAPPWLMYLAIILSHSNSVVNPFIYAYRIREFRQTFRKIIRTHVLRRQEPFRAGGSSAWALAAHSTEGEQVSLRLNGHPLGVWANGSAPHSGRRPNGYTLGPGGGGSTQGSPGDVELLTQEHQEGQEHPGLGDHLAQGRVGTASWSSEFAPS
hA3/CHO, sequence (P0DMS8 whole entry): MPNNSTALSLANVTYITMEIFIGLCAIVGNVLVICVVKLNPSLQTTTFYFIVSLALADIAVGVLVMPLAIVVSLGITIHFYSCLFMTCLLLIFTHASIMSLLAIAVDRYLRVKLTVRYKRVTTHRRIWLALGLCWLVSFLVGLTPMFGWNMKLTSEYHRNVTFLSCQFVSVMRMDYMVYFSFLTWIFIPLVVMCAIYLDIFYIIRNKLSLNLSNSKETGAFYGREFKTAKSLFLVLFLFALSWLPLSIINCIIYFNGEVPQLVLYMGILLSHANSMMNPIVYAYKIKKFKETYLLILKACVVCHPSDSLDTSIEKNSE
hA1, sequence (P30542 whole entry): as the sequence (P30542 whole entry) above

| SMILES | IC50 (hA1) [nM] | IC50 [1] [nM] | IC50 (hA2a/CHO) [nM] | pIC50 (hA3/CHO) | IC50 (mA2a/CHO) [nM] | IC50 (hA2b/CHO) [nM] | IC50 (hA2a) [nM] | IC50 (hA2b) [nM] |
| --- | --- | --- | --- | --- | --- | --- | --- | --- |
| Cn1cc(-c2nc(C(=O)NCc3c(F)cccc3F)c(N)nc2-c2ncco2)ccc1=O [Example 3, 3-amino-N-(2,6-difluorobenzyl)-6-(1-methyl-6-oxo-1,6-dihydropyridin-3-yl)-5-(oxazol-2-yl)pyrazine-2-carboxamide] | 16 | 159 | 4.5 | ≤ 5.00 | 5.8 | 53 | 1.9 | 1.4 |
| CNc1cccc(CNC(=O)c2nc(-c3ccc(=O)n(C)c3)c(-c3ncco3)nc2N)n1 [Example 23, 3-amino-6-(1-methyl-6-oxo-1,6-dihydropyridin-3-yl)-N-[[6-(methylamino)pyridin-2-yl]methyl]-5-(1,3-oxazol-2-yl)pyrazine-2-carboxamide] |  | 281 | 25 | ≤ 5.00 | 64 | 880 | 3.5 | 2.9 |
